Results reported in ChEMBL document CHEMBL2086262, “Ligand-based designing, in silico screening, and biological evaluation of new potent fructose-1,6-bisphosphatase (FBPase) inhibitors” (Eur J Med Chem, 2012).
Activity calls are given as the source filed them. The calls are words filed in the database; no cut-off is given here.

Experiments:
[1] = Inhibition of human recombinant FBPase using fructose-1,6-biphosphate as substrate incubated for 3 mins prior to substrate addition by spectrophotometric analysis
[2] = species on record: Homo sapiens; experiment: Inhibition of human recombinant FBPase using fructose-1,6-biphosphate as substrate at 10 uM incubated for 3 mins prior to substrate addition by spectrophotometric analysis

Structure (SMILES): CC1(C)C2CCC1(C)C(OCCC/N=C(\N)CSS(=O)(=O)O)C2 (stereo not given)
- IC50 [1]: 3800 nM
- inhibition [2]: 81%

Structure (SMILES): COc1ccc(C(=O)/C=C2/Nc3ccc([N+](=O)[O-])cc3NC2=O)cc1
- IC50 [1]: 320 nM
- inhibition [2]: 76%

Structure (SMILES): C=CCN1C(=O)/C(=C/c2ccccc2OCC(=O)O)SC1=S
- IC50 [1]: 3460 nM
- inhibition [2]: 77%

Structure (SMILES): C[N+](C)(CCCCOc1c(Br)cc(Br)cc1Br)Cc1ccc([N+](=O)[O-])o1
- IC50 [1]: 700 nM
- inhibition [2]: 100%

Structure (SMILES): CC1(C)N=C(N)N=C(N)N1c1cccc(OCCOc2ccccc2[N+](=O)[O-])c1
- IC50 [1]: 250 nM
- inhibition [2]: 100%

Structure (SMILES): O=C(CCCOc1ccc(Cl)cc1Cl)NC(CC1NCc2ccccc21)C(=O)O (stereo not given)
- IC50 [1]: 5880 nM
- inhibition [2]: 67%

Structure (SMILES): COc1cc(C2=N/C(=C\c3cccc(O)c3O)C(=O)O2)cc(OC)c1OC
- inhibition [2]: inactive

Structure (SMILES): CCN1C(=O)/C(=C/c2ccc(O)c(S(=O)(=O)O)c2)SC1=S
- IC50 [1]: 6020 nM
- inhibition [2]: 69%

Structure (SMILES): O=S(=O)(O)c1ccccc1/C=N/N=C/c1ccccc1S(=O)(=O)O
- IC50 [1]: 150 nM
- inhibition [2]: 100%

Structure (SMILES): O=C(O)c1ccccc1C(=O)CCC(=O)c1ccccc1C(=O)O
- IC50 [1]: 900 nM
- inhibition [2]: 87%

Structure (SMILES): O=C1NC(=O)C2N=C(CNc3ccc(C(=O)O)cc3)NC2N1 (stereo not given)
- inhibition [2]: inactive

Structure (SMILES): O=C(OCc1ccc([N+](=O)[O-])cc1)c1ccccc1[N+](=O)[O-]
- IC50 [1]: 1650 nM
- inhibition [2]: 100%

Structure (SMILES): CCOC(=O)c1csc(-c2csc(CCNC(=O)c3ccccc3)n2)n1
- IC50 [1]: 330 nM
- inhibition [2]: 87%

Structure (SMILES): O=S(=O)(SCCCCSS(=O)(=O)c1ccc(Cl)cc1)c1ccc(Cl)cc1
- inhibition [2]: 37%

Structure (SMILES): Cc1cc(Cl)ccc1OCCCC(=O)NC(CC(C)C)C(=O)O (stereo not given)
- IC50 [1]: 2440 nM
- inhibition [2]: 60%

Structure (SMILES): COC(=O)CC(=O)CC(=O)c1cccc([N+](=O)[O-])c1
- IC50 [1]: 2230 nM
- inhibition [2]: 74%

Structure (SMILES): CCOc1cc2nc(CC(=O)O)nc(Nc3cccc(-c4csc(C)n4)c3)c2cc1OCC
- IC50 [1]: 960 nM

Structure (SMILES): CCOc1cc2ncnc(Nc3cccc(-c4csc(NN)n4)c3)c2cc1OCC
- IC50 [1]: 4500 nM

Structure (SMILES): COc1cc(/C=C/Cc2c(O)ccc3c2OCO3)cc(OC)c1OC
- inhibition [2]: inactive

Structure (SMILES): CCOc1cc2nc(CN3CCOCC3)nc(Nc3cccc(Br)c3)c2cc1OCC
- IC50 [1]: > 10000 nM

Structure (SMILES): COCCOc1cc2ncnc(Nc3cccc(Br)c3)c2cc1OCCOC
- IC50 [1]: > 10000 nM

Structure (SMILES): CCOc1cc2ncnc(Nc3cccc(-c4cccc(C)c4)c3)c2cc1OCC
- IC50 [1]: > 10000 nM
